Assay results taken from patent publication US6391329B1, “Insect pest control method” (Earth Chemical Co., Ltd., priority 1994, dated 2002).

Legend:
[1] = Vapor pressure measurement of pyrethroid compounds with the vapor pressure measuring apparatus
[2] = Vapor pressure at 30° C. on the cox diagram; type: physicochemical
Method: Compounds which are hard to vaporize at normal temperature can be used in the present invention as a pesticidal component. Those having a vapor pressure […] than 1×10^−7 mmHg at 30° C. and a boiling point of not lower than 120° C./1 mmHg are preferred. It should be noted that the range of vapor pressure as referred to herein is the range at 30° C. on the vapor pressure vs. temperature plot in the cox diagram hereinafter described.
The results of our study have made it possible to suppose or know the vapor pressure at a target temperature by utilizing the cox diagram only if at least one found value is available. The aforesaid problem can thus be solved.
The cox diagram as used herein is the straight line or a group of the straight lines obtained by plotting log P as ordinate and t/(t+C) as abscissa on a graph.

[3] = tested on: Northern house mosquito (female adult); assay: Insecticidal test in acrylic resin cylinder, air blown through impregnated honeycomb carrier (Example 1); type: in vivo; settings: 500 mg preparation; for number of knockdowns: 26 to 30° C.
Excerpt: Testing apparatus 1 shown in FIG. 1 comprising acrylic resin cylinder 4 was used. Twenty of northern house mosquitos (female adult) were put in the space partitioned with insect nets 2, and blower 3 was set at the bottom of testing apparatus 1. Preparation-retaining material 5 comprising a honeycomb carrier impregnated with a preparation was fitted in at the lower part of cylinder 4 and above blower 3. Air was blown from the bottom of cylinder 4 and passed through the preparation-retaining material 5 to release the pesticidal component from the preparation, and the insecticidal effect was examined using apparatus 1 for insect control of the present invention.
The number of knockdowns of the mosquitos was counted for every 30 seconds during 10 minutes and 30 seconds following the start of the testing. The mosquitos knocked down were transferred to a clean plastic cup (volume: about 500 ml) containing a cotton wad impregnated with a 1% aqueous sugar solution as feed, and the cup was covered and maintained under constant temperature conditions of about 25° C. […]
The preparation-retaining material used herein was prepared as follows. A honeycomb structure (70×70×15 mm) comprising a laminate of corrugated boards (single-sided) made of bleached kraft paper having a basis weight of 80 g/m^2 (height of the corrugation: about 2 mm) was uniformly impregnated with 3 ml of an acetone solution containing about 500 mg of preparation. The impregnated carrier was set in the apparatus after acetone vaporized.

[4] = tested on: sensitive smokybrown cockroaches (Periplaneta fuliginosa); assay: Cockroach knockdown and mortality in 24 m^3 test room (Example 3); type: in vivo; settings: 1.0 g pesticidal component
Method: (§1) The insect pest control apparatus of the present invention was put at the center of the floor of the room, and two cups each containing 20 cockroaches were placed at each of the two opposite corners of the floor. The pesticidal component shown in Table 5 below was released from the apparatus for consecutive 24 hours. As test insects, sensitive German cockroaches (Blatella germanica) and sensitive smokybrown cockroaches (Periplaneta fuliginosa) were used.
(§2) The preparation-retaining material used was prepared by impregnating a honeycomb carrier (70×70×15 mm; FIG. 3) with 1.0 g of the pesticidal component.

[5] = tested on: sensitive German cockroaches (Blatella germanica); assay: as above; type: in vivo; settings: 1.0 g pesticidal component
Method: as §1, §2

Compound	Vapor Pressure ([1]; 20° C.)	Vapor Pressure ([1]; 25° C.)	Vapor Pressure ([1]; 30° C.)	Vapor Pressure ([1]; 35° C.)	Vapor Pressure ([1]; 40° C.)	Vapor Pressure at 30° C. [2]	number of knockdowns ([3]; 0.5 min)	number of knockdowns ([3]; 1.0 min)	number of knockdowns ([3]; 1.5 min)	number of knockdowns ([3]; 2.0 min)	number of knockdowns ([3]; 2.5 min)	number of knockdowns ([3]; 3.0 min)	number of knockdowns ([3]; 3.5 min)	Mortality (%) ([3]; 24 hrs.)	Mortality (%) ([3]; 48 hrs.)	further results
C#CCC1=C(C)C(OC(=O)C2C(C=C(C)C)C2(C)C)CC1=O (mixture of isomers) [prallethrin, (+)-2-methyl-4-oxo-3-(2-propynyl)-2-cyclopentenyl (+)-cis/trans-chrysanthemate]	3.5 × 10^−5 mmHg	6.9 × 10^−5 mmHg	1.3 × 10^−4 mmHg	2.4 × 10^−4 mmHg	4.4 × 10^−4 mmHg	1.3 × 10^−4 mmHg	0	0	1	10	15	21	22	86	100	
CC(C)=CC1C(C(=O)OCN2C(=O)C3=C(CCCC3)C2=O)C1(C)C (mixture of isomers) [phthalthrin, (1,3,4,5,6,7-hexahydro-1,3-dioxo-2-isoindolyl)methyl dl-cis/trans-chrysanthemate]	3.5 × 10^−8 mmHg	6.6 × 10^−8 mmHg	1.2 × 10^−7 mmHg	2.2 × 10^−7 mmHg	3.8 × 10^−7 mmHg											
CC(C)=CC1C(C(=O)OCN2C(=O)C3=C(CCCC3)C2=O)C1(C)C (centres unmarked) [tetramethrin]	2.4 × 10^−6 mmHg	4.4 × 10^−6 mmHg	8.5 × 10^−6 mmHg	1.7 × 10^−5 mmHg	3.2 × 10^−5 mmHg											
C#CCc1ccc(COC(=O)C2C(C=C(C)C)C2(C)C)o1 (mixture of isomers) [furamethrin, 5-propargyl-2-furylmethyl d-cis/trans-chrysanthemate]	1.3 × 10^−4 mmHg	2.2 × 10^−4 mmHg	4.5 × 10^−4 mmHg	7.1 × 10^−4 mmHg	1.4 × 10^−3 mmHg	4.5 × 10^−4 mmHg	0	0	0	1	3	8	18	100	100	number of knockdowns ([3]; 4.0 min): 19
CC(C)=CC1C(C(=O)OC(C#N)c2cccc(Oc3ccccc3)c2)C1(C)C (racemic) [cyphenothrin, (±) αa-cyano-3-phenoxybenzyl(+)-cis/trans-chrysanthemate]	9.2 × 10^−7 mmHg	1.9 × 10^−6 mmHg	3.6 × 10^−6 mmHg	6.6 × 10^−6 mmHg	1.3 × 10^−5 mmHg											
CC(C)=CC1C(C(=O)OCc2cccc(Oc3ccccc3)c2)C1(C)C (mixture of isomers) [phenothrin, 3-phenoxybenzyl-d-cis/trans-chrysanthemate]	1.2 × 10^−6 mmHg	2.2 × 10^−6 mmHg	4.3 × 10^−6 mmHg	7.7 × 10^−6 mmHg	1.4 × 10^−5 mmHg											
C=CCC1=C(C)C(OC(=O)C2C(C)(C)C2(C)C)CC1=O (racemic) [terallethrin, dl-3-allyl-2-methyl-4-oxo-2-cyclopentenyl dl-cis/trans-2,2,3,3-tetramethylcyclopropanecarboxylate]	2.2 × 10^−4 mmHg	4.2 × 10^−4 mmHg	6.6 × 10^−4 mmHg	1.2 × 10^−3 mmHg	4.8 × 10^−3 mmHg	6.6 × 10^−4 mmHg	0	0	4	15	17			88	100	
CC1(C)C(C=C(Cl)Cl)C1C(=O)OCc1c(F)c(F)cc(F)c1F (stereo not drawn) [benfluthrin, d-trans-2,3,5,6-tetrafluorobenzyl-3-(2,2-dichlorovinyl)-2,2-dimethyl-1-cyclopropanecarboxylate]	8.3 × 10^−5 mmHg	1.5 × 10^−4 mmHg	2.7 × 10^−4 mmHg	4.0 × 10^−4 mmHg	8.5 × 10^−4 mmHg											Knockdown Ratio (%) ([4]; 1 hr): 0%; Knockdown Ratio (%) ([4]; 2 hrs): 0%; Knockdown Ratio (%) ([4]; 4 hrs): 5.0%; Knockdown Ratio (%) ([4]; 24 hrs): 6.3%; Mortality at 48 hrs (%) ([4]; 48 hrs): 7.5%; Knockdown Ratio (%) ([5]; 1 hr): 0%; Knockdown Ratio (%) ([5]; 2 hrs): 0%; Knockdown Ratio (%) ([5]; 4 hrs): 0%; Knockdown Ratio (%) ([5]; 24 hrs): 87.5%; Mortality at 48 hrs (%) ([5]; 48 hrs): 97.5%
CC1(C)C(C=C(Cl)Cl)C1C(=O)OCc1cccc(Oc2ccccc2)c1 (mixture of isomers) [permethrin, 3-phenoxybenzyl-dl-cis/trans-3-(2,2-dichlorovinyl)-2,2-dimethyl-1-cyclopropanecarboxylate]	5.5 × 10^−7 mmHg	1.1 × 10^−6 mmHg	1.9 × 10^−6 mmHg	3.6 × 10^−6 mmHg	6.3 × 10^−6 mmHg											
C=CCC1=C(C)C(OC(=O)C2C(C=C(C)C)C2(C)C)CC1=O (stereo not drawn) [esbiol, d-3-allyl-2-methyl-4-oxo-2-cyclopentenyl d-trans-chrysanthemate]						1.2 × 10^−4 mmHg	0	0	1	3	10	17	19	70	78	number of knockdowns ([3]; 4.0 min): 22
